PubChem BioAssay (NCI)
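Cells were grown in 96-well plates and exposed to each compound for 48 hours at five concentrations; endpoints were interpolated linearly between bracketing concentrations, or set to the highest concentration if not reached. Definition used: TGI = concentration required for complete inhibition of growth.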

Legend:
Experiment in all cases: DTP human tumour cell line panel, 48 h
[1] = system: 786-0 renal
[2] = system: A498 renal
[3] = system: A549 NSCLC
[4] = system: ACHN renal
[5] = system: CAKI-1 renal
[6] = system: CCRF-CEM leukemia
[7] = system: COLO 205 colon
[8] = system: DLD-1 colon
[9] = system: DMS 114 small cell lung
[10] = system: EKVX NSCLC
[11] = system: HCC-2998 colon
[12] = system: HCT-15 colon
[13] = system: HL-60(TB) leukemia
[14] = system: HOP-62 NSCLC
[15] = system: HOP-92 NSCLC
[16] = system: HT29 colon
[17] = system: IGROV1 ovarian
[18] = system: K-562 leukemia
[19] = system: KM12 colon
[20] = system: KM20L2 colon
[21] = system: LOX IMVI melanoma
[22] = system: LXFL 529 NSCLC
[23] = system: M14 melanoma
[24] = system: MALME-3M melanoma
[25] = system: MOLT-4 leukemia
[26] = system: NCI-H226 lung
[27] = system: NCI-H23 lung
[28] = system: NCI-H460 lung
[29] = system: NCI-H522 lung
[30] = system: OVCAR-3 ovarian
[31] = system: OVCAR-4 ovarian
[32] = system: OVCAR-5 ovarian
[33] = system: OVCAR-8 ovarian
[34] = system: RPMI-8226 leukemia
[35] = system: RXF 393 renal
[36] = system: RXF-631 renal
[37] = system: SF-268 CNS
[38] = system: SF-295 CNS
[39] = system: SF-539 CNS
[40] = system: SK-MEL-2 melanoma
[41] = system: SK-MEL-28 melanoma
[42] = system: SK-MEL-5 melanoma
[43] = system: SK-OV-3 ovarian
[44] = system: SN12C renal
[45] = system: SNB-75 CNS
[46] = system: SNB-78 CNS
[47] = system: SW-620 colon
[48] = system: TK-10 renal
[49] = system: U251 CNS
[50] = system: UACC-257 melanoma
[51] = system: UACC-62 melanoma
[52] = system: UO-31 renal
[53] = system: XF 498 CNS
[54] = system: DMS 273 small cell lung
[55] = system: HCT-116 colon
[56] = system: HOP-18 NSCLC
[57] = system: M19-MEL melanoma
[58] = system: SNB-19 CNS
[59] = system: SR leukemia

O=C1O[C@@H](c2ccccc2)C[C@@H]1CN1CCOCC1
TGI [1]: > 100 µM | TGI [2]: > 100 µM | TGI [3]: > 100 µM | TGI [4]: > 100 µM | TGI [5]: > 100 µM | TGI [6]: > 100 µM | TGI [7]: > 100 µM | TGI [8]: > 100 µM | TGI [9]: > 100 µM | TGI [10]: > 100 µM | TGI [11]: > 100 µM | TGI [12]: > 100 µM | TGI [13]: > 100 µM | TGI [14]: > 100 µM | TGI [15]: > 100 µM | TGI [16]: > 100 µM | TGI [17]: > 100 µM | TGI [18]: > 100 µM | TGI [19]: > 100 µM | TGI [20]: > 100 µM | TGI [21]: > 100 µM | TGI [22]: > 100 µM | TGI [23]: > 100 µM | TGI [24]: > 100 µM | TGI [25]: > 100 µM | TGI [26]: > 100 µM | TGI [27]: 64.1 µM | TGI [28]: > 100 µM | TGI [29]: > 100 µM | TGI [30]: > 100 µM | TGI [31]: > 100 µM | TGI [32]: > 100 µM | TGI [33]: > 100 µM | TGI [34]: > 100 µM | TGI [35]: > 100 µM | TGI [36]: > 100 µM | TGI [37]: > 100 µM | TGI [38]: > 100 µM | TGI [39]: > 100 µM | TGI [40]: > 100 µM | TGI [41]: > 100 µM | TGI [42]: > 100 µM | TGI [43]: > 100 µM | TGI [44]: > 100 µM | TGI [45]: > 100 µM | TGI [46]: > 100 µM | TGI [47]: > 100 µM | TGI [48]: > 100 µM | TGI [49]: > 100 µM | TGI [50]: > 100 µM | TGI [51]: > 100 µM | TGI [52]: > 100 µM | TGI [53]: > 100 µM

CCOC(=O)C(OCC1CC=CCC1)Sc1ccccc1 (stereo unspecified)
TGI [1]: > 100 µM | TGI [2]: > 100 µM | TGI [3]: > 100 µM | TGI [4]: > 100 µM | TGI [5]: > 100 µM | TGI [6]: > 100 µM | TGI [7]: > 100 µM | TGI [8]: > 100 µM | TGI [9]: > 100 µM | TGI [54]: > 100 µM | TGI [10]: > 100 µM | TGI [11]: > 100 µM | TGI [55]: > 100 µM | TGI [12]: > 100 µM | TGI [13]: > 100 µM | TGI [56]: > 100 µM | TGI [14]: > 100 µM | TGI [15]: > 100 µM | TGI [16]: > 100 µM | TGI [17]: > 100 µM | TGI [18]: > 100 µM | TGI [19]: > 100 µM | TGI [20]: > 100 µM | TGI [21]: > 100 µM | TGI [22]: > 100 µM | TGI [23]: > 100 µM | TGI [57]: > 100 µM | TGI [24]: > 100 µM | TGI [27]: > 100 µM | TGI [28]: > 100 µM | TGI [29]: > 100 µM | TGI [30]: > 100 µM | TGI [32]: > 100 µM | TGI [33]: > 100 µM | TGI [34]: > 100 µM | TGI [37]: > 100 µM | TGI [38]: > 100 µM | TGI [39]: > 100 µM | TGI [40]: > 100 µM | TGI [41]: > 100 µM | TGI [42]: > 100 µM | TGI [43]: > 100 µM | TGI [44]: > 100 µM | TGI [58]: > 100 µM | TGI [45]: > 100 µM | TGI [46]: > 100 µM | TGI [59]: > 100 µM | TGI [47]: > 100 µM | TGI [48]: > 100 µM | TGI [49]: > 100 µM | TGI [50]: > 100 µM | TGI [51]: > 100 µM | TGI [52]: > 100 µM
